Test results taken from patent publication US9708334B2, “Substituted 2,4,5,6-tetrahydropyrrolo[3,4-c]pyrazole and 4,5,6,7-tetrahydro-2H-pyrazolo[4,3-c]pyridine compounds as GlyT1 inhibitors” (DART NEUROSCIENCE (CAYMAN) LTD., priority 2014, dated 2017).

Target: T1, GlyT1 (Homo sapiens, UniProt P48067)
T1 construct: expressed in transfected cells
T1 sequence (P48067 1-706): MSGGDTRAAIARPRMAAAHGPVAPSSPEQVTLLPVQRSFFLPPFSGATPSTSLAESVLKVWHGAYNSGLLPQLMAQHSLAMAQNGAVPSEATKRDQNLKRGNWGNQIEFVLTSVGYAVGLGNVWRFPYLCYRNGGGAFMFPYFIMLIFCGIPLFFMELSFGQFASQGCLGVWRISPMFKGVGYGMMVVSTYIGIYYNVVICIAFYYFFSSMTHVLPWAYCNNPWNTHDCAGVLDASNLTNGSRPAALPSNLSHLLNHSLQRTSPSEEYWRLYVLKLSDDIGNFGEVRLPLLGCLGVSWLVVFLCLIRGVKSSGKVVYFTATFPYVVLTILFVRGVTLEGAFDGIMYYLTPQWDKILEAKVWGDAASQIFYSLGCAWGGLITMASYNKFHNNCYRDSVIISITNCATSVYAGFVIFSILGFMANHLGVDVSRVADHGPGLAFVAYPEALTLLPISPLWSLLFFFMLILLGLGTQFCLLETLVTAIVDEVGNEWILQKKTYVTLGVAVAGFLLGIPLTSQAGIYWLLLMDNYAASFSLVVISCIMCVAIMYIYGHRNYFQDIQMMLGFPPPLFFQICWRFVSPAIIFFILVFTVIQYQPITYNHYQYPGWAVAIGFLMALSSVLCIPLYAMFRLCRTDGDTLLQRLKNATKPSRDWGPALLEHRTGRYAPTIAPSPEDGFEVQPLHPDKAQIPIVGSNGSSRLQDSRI
Test: Glycine Transporter 1 (GlyT1) uptake assay, scintillation proximity assay of [14C]-glycine uptake
Assay type: cell-based
Settings: SPA, four parameter logistic fit, read-out: GlyT1 (pIC50) (converted)
Procedure, shortened: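 [14C]-glycine uptake read by scintillation proximity on a plate counter. IC50 from four-parameter logistic fit of dose-response data.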

Row | Compound | IC50 [µM]
1 | CS(=O)(=O)c1ccc(C2CCCC2)c(C(=O)N2CCc3nn(-c4ccccc4)cc3C2)c1 [Example 170, 5-(2-Cyclopentyl-5-methanesulfonylbenzoyl)-2-phenyl-2H 4H 5H 6H 7H-pyrazolo[4,3-c]pyridine] | < 0.1
2 | O=C(c1cc(N2CCOC2=O)ccc1C1CCCC1)N1CCc2nn(-c3ccccc3)cc2C1 [Example 171, 3-(4-Cyclopentyl-3-{2-phenyl-2H 4H 5H 6H 7H-pyrazolo[4,3-c]pyridine-5-carbonyl}phenyl)-1 3-oxazolidin-2-one] | 0.1 to 1
3 | CC(Oc1ccc(N2CCOC2=O)cc1C(=O)N1CCc2nn(-c3ccccc3)cc2C1)C(F)(F)F (stereo not shown) [Example 172, 3-(3-{2-Phenyl-2H 4H 5H 6H 7H-pyrazolo[4,3-c]pyridine-5-carbonyl}-4-[(1 1 1-trifluoropropan-2-yl)oxy]phenyl)-1 3-oxazolidin-2-one] | 1 to 10
4 | [2H]C1(c2ccc(C#N)cc2C(=O)N2CCc3nn(-c4ccccc4)cc3C2)CCCC1 [Example 173, 4-[(1-^2H)Cyclopentyl]-3-{2-phenyl-2H 4H 5H 6H 7H-pyrazolo[4,3-c]pyridine-5-carbonyl}benzonitrile] | 0.1 to 1
5 | N#Cc1ccc(C2CCC2)c(C(=O)N2CCc3nn(-c4ccccc4)cc3C2)c1 [Example 174, 4-Cyclobutyl-3-{2-phenyl-2H 4H 5H 6H 7H-pyrazolo[4,3-c]pyridine-5-carbonyl}benzonitrile] | 1 to 10
6 | N#Cc1ccc(C2CCCC2)c(C(=O)N2CCc3nn(-c4ccccc4)cc3C2)c1F [Example 175, 4-Cyclopentyl-2-fluoro-3-{2-phenyl-2H 4H 5H 6H 7H-pyrazolo[4,3-c]pyridine-5-carbonyl}benzonitrile] | 0.1 to 1
7 | COc1c(C#N)ccc(OC(C)C(F)(F)F)c1C(=O)N1CCc2nn(-c3ccccc3)cc2C1 (stereo not shown) [Example 176, 2-Methoxy-3-{2-phenyl-2H 4H 5H 6H 7H-pyrazolo[4,3-c]pyridine-5-carbonyl}-4-[(1 1 1-trifluoropropan-2-yl)oxy]benzonitrile] | < 0.1
8 | CC(Oc1ccc(C#N)c(Cl)c1C(=O)N1CCc2nn(-c3ccc(F)cc3)cc2C1)C(F)(F)F (stereo not shown) [Example 177, 2-Chloro-3-[2-(4-fluorophenyl)-2H 4H 5H 6H 7H-pyrazolo[4,3-c]pyridine-5-carbonyl]-4-[(1 1 1-trifluoropropan-2-yl)oxy]benzonitrile] | 0.1 to 1
9 | N#Cc1ccc(C2(F)COC2)c(C(=O)N2CCc3nn(-c4ccccc4)cc3C2)c1F [Example 178, 2-Fluoro-4-(3-fluorooxetan-3-yl)-3-{2-phenyl-2H 4H 5H 6H 7H-pyrazolo[4,3-c]pyridine-5-carbonyl}benzonitrile] | > 10
10 | CC(Oc1ccc(C#N)c(Cl)c1C(=O)N1CCc2c(cnn2-c2ccc(F)cc2F)C1)C(F)(F)F (stereo not shown) [Example 179, 2-Chloro-3-[1-(2 4-difluorophenyl)-1H 4H 5H 6H 7H-pyrazolo[4,3-c]pyridine-5-carbonyl]-4-[(1 1 1-trifluoropropan-2-yl)oxy]benzonitrile] | 0.1 to 1
11 | N#Cc1ccc(C2CCC2)c(C(=O)N2CCc3nn(-c4ccccc4)cc3C2)c1F [Example 180, 4-Cyclobutyl-2-fluoro-3-{2-phenyl-2H 4H 5H 6H 7H-pyrazolo[4,3-c]pyridine-5-carbonyl}benzonitrile] | 1 to 10
12 | CC(Oc1ccc(C#N)cc1C(=O)N1CCc2nn(-c3ccc(F)cc3)cc2C1)C(F)(F)F (stereo not shown) [Example 181, 3-[2-(4-Fluorophenyl)-2H 4H 5H 6H 7H-pyrazolo[4,3-c]pyridine-5-carbonyl]-4-[(1 1 1-trifluoropropan-2-yl)oxy]benzonitrile] | 1 to 10
13 | CC(Oc1ccc(C#N)c(Cl)c1C(=O)N1CCc2c(c(C(F)(F)F)nn2C)C1)C(F)(F)F (stereo not shown) [Example 182, 2-Chloro-3-[1-methyl-3-(trifluoromethyl)-1H 4H 5H 6H 7H-pyrazolo[4,3-c]pyridine-5-carbonyl]-4-[(1 1 1-trifluoropropan-2-yl)oxy]benzonitrile] | 1 to 10
14 | CC(Oc1ccc(C#N)c(Cl)c1C(=O)N1CCc2[nH]ncc2C1)C(F)(F)F (stereo not shown) [Example 183, 2-Chloro-3-{1H 4H 5H 6H 7H-pyrazolo[4,3-c]pyridine-5-carbonyl}-4-[(1 1 1-trifluoropropan-2-yl)oxy]benzonitrile] | > 10
15 | CCOc1c2c(nn1-c1ccc(F)cc1)CCN(C(=O)c1c(OC(C)C(F)(F)F)ccc(C#N)c1Cl)C2 (stereo not shown) [Example 184, 2-Chloro-3-[3-ethoxy-2-(4-fluorophenyl)-2H 4H 5H 6H 7H-pyrazolo[4,3-c]pyridine-5-carbonyl]-4-[(1 1 1-trifluoropropan-2-yl)oxy]benzonitrile] | 1 to 10
16 | CC(Oc1ccc(C#N)c(Cl)c1C(=O)N1Cc2cnn(-c3ccc(F)cc3)c2C(C)(C)C1)C(F)(F)F (stereo not shown) [Example 185, 2-Chloro-3-[1-(4-fluorophenyl)-7 7-dimethyl-1H 4H 5H 6H 7H-pyrazolo[4,3-c]pyridine-5-carbonyl]-4-[(1 1 1-trifluoropropan-2-yl)oxy]benzonitrile] | < 0.1
17 | CC(Oc1ccc(C#N)c(Cl)c1C(=O)N1CCc2nn(C)c(C(F)(F)F)c2C1)C(F)(F)F (stereo not shown) [Example 186, 2-Chloro-3-[2-methyl-3-(trifluoromethyl)-2H 4H 5H 6H 7H-pyrazolo[4,3-c]pyridine-5-carbonyl]-4-[(1 1 1-trifluoropropan-2-yl)oxy]benzonitrile] | 1 to 10
18 | N#Cc1ccc(C2(F)CCCC2)c(C(=O)N2CCc3nn(-c4ccccc4)cc3C2)c1F [Example 187, 2-Fluoro-4-(1-fluorocyclopentyl)-3-{2-phenyl-2H 4H 5H 6H 7H-pyrazolo[4,3-c]pyridine-5-carbonyl}benzonitrile] | 0.1 to 1
19 | N#Cc1ccc(C2(F)CCCC2)c(C(=O)N2CCc3nn(-c4ccc(F)cc4)cc3C2)c1F [Example 188, 2-Fluoro-4-(1-fluorocyclopentyl)-3-[2-(4-fluorophenyl)-2H 4H 5H 6H 7H-pyrazolo[4,3-c]pyridine-5-carbonyl]benzonitrile] | 0.1 to 1
20 | Cc1c2c(nn1-c1ccc(F)cc1)CCN(C(=O)c1c(OC(C)C(F)(F)F)ccc(C#N)c1Cl)C2 (stereo not shown) [Example 189, 2-Chloro-3-[2-(4-fluorophenyl)-3-methyl-2H 4H 5H 6H 7H-pyrazolo[4,3-c]pyridine-5-carbonyl]-4-[(1 1 1-trifluoropropan-2-yl)oxy]benzonitrile] | 0.1 to 1
21 | Cc1nn(-c2ccc(F)cc2)c2c1CN(C(=O)c1c(OC(C)C(F)(F)F)ccc(C#N)c1Cl)CC2 (stereo not shown) [Example 190, 2-Chloro-3-[1-(4-fluorophenyl)-3-methyl-1H 4H 5H 6H 7H-pyrazolo[4,3-c]pyridine-5-carbonyl]-4-[(1 1 1-trifluoropropan-2-yl)oxy]benzonitrile] | 0.1 to 1
22 | CC(Oc1ccc(C#N)c(Cl)c1C(=O)N1Cc2cn(-c3ccc(F)cc3)nc2C(C)(C)C1)C(F)(F)F (stereo not shown) [Example 191, 2-Chloro-3-[2-(4-fluorophenyl)-7 7-dimethyl-2H 4H 5H 6H 7H-pyrazolo[4,3-c]pyridine-5-carbonyl]-4-[(1 1 1-trifluoropropan-2-yl)oxy]benzonitrile] | 1 to 10
23 | COc1c(C#N)ccc(OC(C)C(F)(F)F)c1C(=O)N1Cc2cn(-c3ccc(F)cc3)nc2C(C)(C)C1 (stereo not shown) [Example 192, 3-[2-(4-Fluorophenyl)-7 7-dimethyl-2H 4H 5H 6H 7H-pyrazolo[4,3-c]pyridine-5-carbonyl]-2-methoxy-4-[(1 1 1-trifluoropropan-2-yl)oxy]benzonitrile] | 1 to 10
24 | CC(Oc1ccc(C#N)c(Cl)c1C(=O)N1CCc2nn(-c3ccccc3)cc2C1)C(F)(F)F (stereo not shown) [Example 193, 2-Chloro-3-{2-phenyl-2H 4H 5H 6H 7H-pyrazolo[4,3-c]pyridine-5-carbonyl}-4-[(1 1 1-trifluoropropan-2-yl)oxy]benzonitrile] | 0.1 to 1
25 | COc1c(C#N)ccc(OC(C)C(F)(F)F)c1C(=O)N1CCc2nn(-c3ccc(F)cc3F)cc2C1 (stereo not shown) [Example 194, 3-[2-(2 4-Difluorophenyl)-2H 4H 5H 6H 7H-pyrazolo[4,3-c]pyridine-5-carbonyl]-2-methoxy-4-[(1 1 1-trifluoropropan-2-yl)oxy]benzonitrile] | 0.1 to 1
26 | CC(Oc1ccc(C#N)c(Cl)c1C(=O)N1CCc2c(cnn2Cc2ccccc2)C1)C(F)(F)F (stereo not shown) [Example 195, 3-{1-Benzyl-1H 4H 5H 6H 7H-pyrazolo[4,3-c]pyridine-5-carbonyl}-2-chloro-4-[(1 1 1-trifluoropropan-2-yl)oxy]benzonitrile] | 0.1 to 1
27 | CC(Oc1ccc(C(N)=O)c(Cl)c1C(=O)N1CCc2nn(-c3ccc(F)cc3)cc2C1)C(F)(F)F (stereo not shown) [Example 196, 2-Chloro-3-[2-(4-fluorophenyl)-2H 4H 5H 6H 7H-pyrazolo[4,3-c]pyridine-5-carbonyl]-4-[(1 1 1-trifluoropropan-2-yl)oxy]benzamide] | 0.1 to 1
28 | CC(Oc1ccc(C#N)c(Cl)c1C(=O)N1CCc2nn(-c3ccc(F)cc3)c(O)c2C1)C(F)(F)F (stereo not shown) [Example 197, 2-Chloro-3-[2-(4-fluorophenyl)-3-hydroxy-2H 4H 5H 6H 7H-pyrazolo[4,3-c]pyridine-5-carbonyl]-4-[(1 1 1-trifluoropropan-2-yl)oxy]benzonitrile] | > 10
